Source: patent EP0260606A2, “Medicament for curing neurotic disturbance or disorder comprising sialocylglycerolipid” (MECT CORPORATION, priority 1986, dated 1988)
Values joined by “and” are separate entries in the source; they are usually repeats but may differ in a detail not shown here. Equal values may be shown once.

Tests used:
[1] = tested on: neuroblastoma cell Neuro2a; test: Effect on the neuroblastoma cell Neuro2a (formation and growth of axis-cylinder process); type: cell-based; conditions: for Length of Axis-cylinder Process / Number of Axis-cylinder Process: average ± S.E.
Experimental: The nervous cell used in the test was neuroblastoma cell Neuro2a which is readily available and can be cultured in a relatively simple manner.
Neuro2a was floated on a culture medium containing fetal cattle serum (hereinafter referred to as FCS), the culture medium consisting of 90% of Dubecco's Modified Eagle's Medium (hereinafter referred to as MEM) and l0% of FCS and added with l00 U/ml of penicillin G and l00 µg/ml of streptomycin sulfate, and cultured in a carbon dioxide cultivator at 37°C in an air containing 5% of carbon dioxide. The containers used were 60 mm polystyrene dishes, and each of the containers was incubated with l to 2 × l0⁴ cells followed by culturing for 48 hours prior to the test. […] After the lapse of 24 hours and 48 hours, the increase in cells formed with axis-cylinder process, the increase in number of axis-cylinder processes and the elongation of the length of the axis-cylinder process were measured.
The test was conducted while using three dishes for each concentration of each test material.

[2] = tested on: rat having its nigral depaminergic neuron destroyed; test: Methamphethamine-induced rotational movement after 6-hydroxydopamine lesion and fetal dopaminergic cell transplantation; type: in vivo; conditions: for Average of Rotational Movement of Rats (Average + S.D.): group average, 30 mg/kg; for Number of Rotational Movement of Rats: individual rat, 30 mg/kg every day for two weeks from transplantation, listed as Ganglioside GM1, 30 mg/kg
Source text: The nigral dopaminergic neuron of the brain of a rat was chemically destroyed by injecting a very small quantity of 6-hydroxydopamine to cause motor disturbance.
After the lapse of two weeks, a fetal brain dopaminergic cell was transplanted on the Nucleus caudatus of the rat brain to try to remedy the motor disturbance.
The nigral depaminergic neuron at the left side of the brain of a female Wister family rat aged 4-weeks (Body Weight: l00 g) was destroyed by injecting a very small quantity of 6-hydroxydopamine.
After two weeks from the destruction by the administration of the drug, portions of the […] containing dopamin cells (i.e. substantia nigra and the Tegmentum at the abdomen side) were extracted from the fetal rat brain of a fetal rat of l4 to l7 days age, cut finely, and treated with trypsin. Then, the extracted tissues were incubated at 37°C for 30 minutes, and the tissues were subjected to pipetting to form a suspension. 5 µl each of the suspensions were transplanted on two sites of the Nucleus caudatus of the destructed side, the total of l0 µl (containing about l0⁵ cells) being transplanted.
The rotational movements caused by administration of methamphethamine were examined at the time point before 2 weeks of the transplantation (- 2W), at the time point before one week of the transplantation (- lW) and at the time point after two weeks of the transplantation (2W). The number of rotational movements within one minute were counted at l0 minute intervals after six administrations of methamphethamine, and the total number of rotational movements counted for the six times was averaged to find the mean rotational movement. As controls, the numbers of rotational movements of the rats administered, respectively, with a ganglioside mixture and GM₁ ganglioside were counted.

[3] = - 1W (before transplantation and dosing)
[4] = - 2W (before transplantation and dosing)

## (NAcNeu(α2-8) NAcNeu(α2-3))-Gal(ßl-3)GalNAc(ßl-4)(NAcNeu(α2-8)NAcNeu(α-2-3))-Gal(ßl-4)Glc(ßl-l) [GQ1b]
[1]; 24 hours, 0.01 µg/ml
  Number of Cells Formed with Axis-cylinder Process: 174
  Ratio of Cells Formed with Axis-cylinder Process: 51.8%
  Total Number of Cells: 336
  Length of Axis-cylinder Process: 88.5 ± 5.00 µm/cell
  Number of Axis-cylinder Process: 1.3 ± 0.05 per cell
[1]; 24 hours, 0.1 µg/ml
  Number of Cells Formed with Axis-cylinder Process: 159
  Ratio of Cells Formed with Axis-cylinder Process: 58.0%
  Total Number of Cells: 331
  Length of Axis-cylinder Process: 86.0 ± 4.72 µm/cell
  Number of Axis-cylinder Process: 1.3 ± 0.04 per cell
[1]; 24 hours, 1 µg/ml
  Number of Cells Formed with Axis-cylinder Process: 157
  Ratio of Cells Formed with Axis-cylinder Process: 51.0%
  Total Number of Cells: 308
  Length of Axis-cylinder Process: 97.6 ± 4.95 µm/cell
  Number of Axis-cylinder Process: 1.4 ± 0.05 per cell
[1]; 24 hours, 10 µg/ml
  Number of Cells Formed with Axis-cylinder Process: 205
  Ratio of Cells Formed with Axis-cylinder Process: 63.9%
  Total Number of Cells: 321
  Length of Axis-cylinder Process: 114.9 ± 5.98 µm/cell
  Number of Axis-cylinder Process: 1.3 ± 0.06 per cell
[1]; 24 hours, 100 µg/ml
  Number of Cells Formed with Axis-cylinder Process: U.C.
  Total Number of Cells: U.C.
  Length of Axis-cylinder Process: U.C.
  Number of Axis-cylinder Process: U.C.
[1]; 48 hours, 0.01 µg/ml
  Number of Cells Formed with Axis-cylinder Process: 158
  Ratio of Cells Formed with Axis-cylinder Process: 42.6%
  Total Number of Cells: 371
  Length of Axis-cylinder Process: 100.4 ± 5.76 µm/cell
  Number of Axis-cylinder Process: 1.5 ± 0.06 per cell
[1]; 48 hours, 0.1 µg/ml
  Number of Cells Formed with Axis-cylinder Process: 153
  Ratio of Cells Formed with Axis-cylinder Process: 44.1%
  Total Number of Cells: 347
  Length of Axis-cylinder Process: 90.4 ± 6.06 µm/cell
  Number of Axis-cylinder Process: 1.2 ± 0.04 per cell
[1]; 48 hours, 1 µg/ml
  Number of Cells Formed with Axis-cylinder Process: 182
  Ratio of Cells Formed with Axis-cylinder Process: 47.4%
  Total Number of Cells: 384
  Length of Axis-cylinder Process: 106.5 ± 6.40 µm/cell
  Number of Axis-cylinder Process: 1.3 ± 0.04 per cell
[1]; 48 hours, 10 µg/ml
  Number of Cells Formed with Axis-cylinder Process: 214
  Ratio of Cells Formed with Axis-cylinder Process: 61.8%
  Total Number of Cells: 346
  Length of Axis-cylinder Process: 122.5 ± 6.99 µm/cell
  Number of Axis-cylinder Process: 1.3 ± 0.04 per cell
[1]; 48 hours, 100 µg/ml
  Number of Cells Formed with Axis-cylinder Process: U.C.
  Total Number of Cells: U.C.
  Length of Axis-cylinder Process: U.C.
  Number of Axis-cylinder Process: U.C.

## Gal, (ßl-3) GalNAc (ßl-4) NAcNeu(α2-3))Gal(ßl-4)Glc(ßl-l)Ceramide [GM1]
[2]; 2W after transplantation
  Average of Rotational Movement of Rats (Average + S.D.): 7.6+3.6
  Number of Rotational Movement of Rats: 3.7 and 10.9 and 8.2
[2]; [3]
  Average of Rotational Movement of Rats (Average + S.D.): 9.8+4.4
  Number of Rotational Movement of Rats: 14.8 and 6.9 and 7.6
[2]; [4]
  Average of Rotational Movement of Rats (Average + S.D.): 9.0+4.1
  Number of Rotational Movement of Rats: 12.5 and 10.1 and 4.5
[1]; 24 hours, 0.01 µg/ml
  Number of Cells Formed with Axis-cylinder Process: 145
  Ratio of Cells Formed with Axis-cylinder Process: 43.4%
  Total Number of Cells: 334
  Length of Axis-cylinder Process: 94.9 ± 6.64 µm/cell
  Number of Axis-cylinder Process: 1.4 ± 0.05 per cell
[1]; 24 hours, 0.1 µg/ml
  Number of Cells Formed with Axis-cylinder Process: 142
  Ratio of Cells Formed with Axis-cylinder Process: 47.8%
  Total Number of Cells: 297
  Length of Axis-cylinder Process: 101.1 ± 5.09 µm/cell
  Number of Axis-cylinder Process: 1.4 ± 0.06 per cell
[1]; 24 hours, 1 µg/ml
  Number of Cells Formed with Axis-cylinder Process: 140
  Ratio of Cells Formed with Axis-cylinder Process: 42.2%
  Total Number of Cells: 332
  Length of Axis-cylinder Process: 109.7 ± 6.44 µm/cell
  Number of Axis-cylinder Process: 1.4 ± 0.06 per cell
[1]; 24 hours, 10 µg/ml
  Number of Cells Formed with Axis-cylinder Process: 149
  Ratio of Cells Formed with Axis-cylinder Process: 45.8%
  Total Number of Cells: 325
  Length of Axis-cylinder Process: 89.3± 4.77 µm/cell
  Number of Axis-cylinder Process: 1.4 ± 0.05 per cell
[1]; 24 hours, 100 µg/ml
  Number of Cells Formed with Axis-cylinder Process: 172
  Ratio of Cells Formed with Axis-cylinder Process: 55.5%
  Total Number of Cells: 310
  Length of Axis-cylinder Process: 90.5 ± 3.88 µm/cell
  Number of Axis-cylinder Process: 1.8 ± 0.05 per cell
[1]; 48 hours, 0.01 µg/ml
  Number of Cells Formed with Axis-cylinder Process: 194
  Ratio of Cells Formed with Axis-cylinder Process: 58.3%
  Total Number of Cells: 333
  Length of Axis-cylinder Process: 93.7 ± 5.07 µm/cell
  Number of Axis-cylinder Process: 1.4 ± 0.05 per cell
[1]; 48 hours, 0.1 µg/ml
  Number of Cells Formed with Axis-cylinder Process: 156
  Ratio of Cells Formed with Axis-cylinder Process: 44.7%
  Total Number of Cells: 349
  Length of Axis-cylinder Process: 108.8 ± 5.97 µm/cell
  Number of Axis-cylinder Process: 1.4 ± 0.06 per cell
[1]; 48 hours, 1 µg/ml
  Number of Cells Formed with Axis-cylinder Process: 211
  Ratio of Cells Formed with Axis-cylinder Process: 59.9%
  Total Number of Cells: 352
  Length of Axis-cylinder Process: 109.2 ± 6.09 µm/cell
  Number of Axis-cylinder Process: 1.3 ± 0.04 per cell
[1]; 48 hours, 10 µg/ml
  Number of Cells Formed with Axis-cylinder Process: 205
  Ratio of Cells Formed with Axis-cylinder Process: 62.1%
  Total Number of Cells: 330
  Length of Axis-cylinder Process: 113.8 ± 5.49 µm/cell
  Number of Axis-cylinder Process: 1.3 ± 0.04 per cell
[1]; 48 hours, 100 µg/ml
  Number of Cells Formed with Axis-cylinder Process: 193
  Ratio of Cells Formed with Axis-cylinder Process: 60.9%
  Total Number of Cells: 317
  Length of Axis-cylinder Process: 98.9 ± 5.22 µm/cell
  Number of Axis-cylinder Process: 1.5 ± 0.05 per cell
